Assays:
Assay type in all cases: cell-based, mouse
[1] = tested on: Tcf/Lef; assay: Tcf/Lef luciferase reporter assay of Wnt activity in inner ear organoids; conditions: addition of pargyline to CHIR99021 or LYCH; luciferase at 48 hours
Experimental: Luciferase assay. Wnt activity was assessed in inner ear organoids using lentiviral vector expressing Firefly luciferase under the control of 7 Tcf binding sites (Fuerer and Nusse, 2010). Cochlear progenitor cells were dissected from sensory epithelia of wild-type neonatal mice using the established protocol described above (McLean et al., 2017). Dissociated cells were resuspended in proliferation media contain poly brene (Sigma) and lentivirus reporter (7TFC, Addgene #24307) and plated in 96 well plate coated with matrigel for 12-16 hours, [adapted from (Maru et al., 2016)]. The following day, media (containing dead cells and virus) was aspirated and a top layer of matrigel applied to the adherent cells and allowed to solidify, followed by addition of proliferation media. Media was changed every 2 days for 10 days as organoids developed. At day 10, media was changed to differentiation conditions with removal of growth factors and treatment with drug combinations described above. […] Luciferase was measured at 48 hours and normalized to total protein concentration.
Active canonical Wnt signaling is facilitated by the nuclear translocation of β-catenin, which binds with transcription factors of the Tcf/Lef family to activate transcription. […] We also analyzed Wnt activity in the treated cells using a Tcf/Lef reporter assay.

[2] = tested on: LCPs; assay: RNA sequencing of LCP organoids with and without pargyline
Experimental: RNA sequencing. After RNA extractions were performed using the RNeasy Micro Kit (QIAGEN), the library preparation and RNA-sequencing was performed at the Dana Farber Cancer Institute Molecular Biology Core Facility. In brief, cDNA was synthesized from 2.5 ng of RNA using SMARTer V4 Kit (Clontech). Following fragmentation using M220 Focused-Ultrasonicator (Covaris), 2 ng of sheared cDNA was taken for library preparation using ThruPLEX DNA-seq kit (Rubicon Genomics). NextSeq500 Single-End 75 bp (SE75) Sequencing (Illumina) was performed on all 12 samples in one lane after they were indexed and pooled in equimolar to ensure 20-30 million reads per sample. Reads were aligned to mm10 augmented with Ensembl gene build 75 with STAR v2.5.2b (Dobin et al., 2013). Reads and alignments were assessed for quality using FastQC. Differential expression was evaluated using DESeq2. Genes were called differentially expressed when the absolute value of the fold change was >1.25 and FDR, was smaller than 0.05. Subsequent pathway analysis was performed using Ingenuity Pathway Analysis software (Qiagen).
The effect of pargyline on the differentiation of hair cells could be broad and we therefore evaluated its effect on the gene expression patterns of Lsd1 inhibitor-treated and untreated samples. The samples analyzed included the undifferentiated organoids following expansion (DO) and the differentiated organoids following 10 days of differentiation, with and without pargyline treatment (D10). […] In addition, 90% of the genes aligned to the genome and over 22,000 genes were detected in each sample. […] The times here refer to the beginning and end of differentiation and the finding was that most of the difference between samples was due to the 10 days of differentiation. Consistently, the principle component analysis (PCA) clustered the samples by the time of differentiation (responsible for 62% of the variation between samples) and the treatment (20% of the variation: FIG. 10B). Lsd1 inhibition in the presence of CHIR99021 altered gene expression and caused the pargyline-treated samples to cluster separately from those treated with CHIR99021 alone.
Differential expression analysis of the samples was also performed using DESeq2 (Love et al., 2014). […] We further compared the gene expression profiles of the samples. Compared to the undifferentiated (DO), approximately […]) and 3365 genes were differentially expressed in the D10 or D10+pargyline samples, respectively. The addition of pargyline compared to the untreated samples altered the expression of approximately 474 genes (padj<0.05, fold change >1.25).
Gene set enrichment analysis (GSEA) using gene sets associated with biological process gene ontology terms (Subramanian et al., 2005) was next performed to gain insight into the relevant pathways altered in this dataset. The analysis accounts for coordinated differential expression over pre-defined gene sets, instead of changes in individual genes. Pathways related to the cell cycle and proliferation were the most enriched after pargyline treatment, particularly the p53 and PI3/AKT, MAPK and RAS pathways (−0.503, −0.33). although these cells were in the differentiation phase. […] Here we present the top 15 differentially expressed hair cell receptor genes. […] Collectively, these findings corroborate increasing hair cell differentiation with Lsd1 inhibition.

[3] = tested on: Atoh1-nGFP cells; assay: Hair cell differentiation of LCP organoids, FACS for Atoh1-nGFP cells; conditions: 10 days of differentiation (D10), standard differentiation treatment (CHIR99021 and LY411575) without or with pargyline
Experimental: Differentiation of LCPs into a hair cell lineage. […] To analyze the effect of the Lsd1 inhibitors, the LCPs were treated with the small molecules combined with a differentiation drug cocktail, pargyline and CHIR99021 or CHIR99021 at 1, 2, 4, and 10 days (McLean et al., 2017).
For the drug screening experiments, the expanded cells were passaged into a 96 well plate to test varying drug combinations. All experiments were done in triplicate at minimum. Atoh1-nGFP cells were quantified after 10 days in culture. The cell colonies were incubated in Cell Recovery Solution for 1 hour and dissociated into single cells using TrypleE. The total cell number and percentage of GFP+ cells were quantified using fluorescence activated cell sorting (FACS).
We next tested the effect of Lsd1 inhibition on hair cell differentiation. In this assay, after the cells were expanded into organoids during the initial proliferation phase, differentiation was initiated using the combination of CHIR99021 and LY411575 and allowed to progress for 10 days (DO to D10). Organoids were monitored for the development of hair cells using FACS and qRT-PCR. […] Conversely, Myo7a expression increases throughout development and is a key marker of mature hair cells. All hair cell markers tested were elevated with the exception of Atoh1, which had begun to decrease 10 days after the initiation of differentiation.

[4] = D10 with pargyline compared to untreated
[5] = pargyline-treated samples, p<0.05

C#CCN(C)Cc1ccccc1 [pargyline, N-Methyl-N-propargylbenzylamine]
Tcf/Lef activity [1]: no significant difference
genes differentially expressed compared to the undifferentiated (D0) ([2]; D10+pargyline samples versus D0): ~3365 genes
genes downregulated [2, 4]: 330 genes
genes upregulated [2, 4]: 144 genes
genes with altered expression ([2]; D10 with pargyline compared to untreated, padj<0.05, fold change >1.25): approximately 474 genes
gene set enrichment score, development of auditory receptors (GO:0060117) ([2]; GSEA after pargyline treatment, p<0.1): 0.62
top 15 differentially expressed Wnt target genes: number downregulated [2, 5]: 13 genes
top 15 differentially expressed Wnt target genes: number upregulated [2, 5]: 2 genes
percentage of Atoh1-nGFP cells in culture [3]: 39%

— patent US20240245702A1, “Inhibition of Lysine Demethylase 1 (Lsd1) Induces Differentiation of Hair Cells” (Massachusetts Eye and Ear Infirmary, priority 2018, published 2024)
